Assay [1] has as its system S. aureus. The assay is described as follows: Minimum Inhibition Concentration (MIC) and Fractional Inhibitory Concentration (FIC) against S. aureus. Format: cell-based. Particulars: Staphylococcus aureus, single active, tryptic soy broth, 96 well plate, 16-24 hours at 37° C. Here is the method: (§1) Minimum Inhibition Concentration (MIC) Serial dilutions of the active are combined with tryptic soy broth and 0.1 optical density of bacteria in a 96 well plate. The optical density of the mixture is measured after 16-24 hours at 37° C. An increase in optical density represents bacterial growth. The plate is analyzed to determine the minimum concentration needed to inhibit growth of bacteria. Numbers are reported in ppm. The MIC values are determined for thymol and totarol against E. Coli and S. aureus. The MIC dose response assay is conducted just as the MIC, however, one active's concentration is kept constant and the other active's concentration follows a two-fold serial dilution. Fractional Inhibition Concentration (FIC) The MIC values are also determined for thymol in the presence of totarol to determine the Fractional Inhibitory Concentration (FIC). This calculation accounts for the fractional activity of thymol and totarol within a MIC test. [formula] such that: [table]

The subject of assay [2] is E. coli. The assay is described as follows: Minimum Inhibition Concentration (MIC) and Fractional Inhibitory Concentration (FIC) against E. coli. Format: cell-based. The conditions noted are these: Escherichia coli, single active, tryptic soy broth, 96 well plate, 16-24 hours at 37° C. Here is the method: as §1

As for `CC(C)c1c(O)ccc2c1CC[C@H]1C(C)(C)CCC[C@]21C` [Totarol, totarol], the MIC came out at 31.2 µg/mL in assay [1] and 125 µg/mL in assay [2]. In the case of `Cc1ccc(C(C)C)c(O)c1` [Thymol, thymol], in assay [2], the minimum inhibitory concentration (MIC) is 125 µg/mL.
